# According to ChEMBL document CHEMBL1140271, “Synthesis and antibacterial activity of 5-methoxy- and 5-hydroxy-6-fluoro-1,8-naphthyridone-3-carboxylic acid derivatives” (Bioorg Med Chem Lett, 2005):
# How the values were obtained:
# Haemophilus influenzae = test: Minimum inhibitory concentration against Haemophilus influenzae GYR 1435 gram-negative strain; assay type: functional
# Streptococcus pneumoniae [1] = test: Minimum inhibitory concentration against Streptococcus pneumoniae 7257 Quinolone-resistant strain; assay type: functional
# Streptococcus pneumoniae [2] = test: Inhibitory concentration against Streptococcus pneumoniae translation; assay type: functional, organism-based
structure (smiles),measurement,setting,value
COc1c(F)c(N2CCCC2)nc2ncc(C(=O)O)c(O)c12,MIC,Haemophilus influenzae,64 µg/mL
same,MIC,Streptococcus pneumoniae [1],32 µg/mL
same,IC50,Streptococcus pneumoniae [2],32 µM
NC1CCN(c2nc3ncc(C(=O)O)c(O)c3c(O)c2F)C1 (centres undefined),MIC,Haemophilus influenzae,32 µg/mL
same,MIC,Streptococcus pneumoniae [1],64 µg/mL
same,IC50,Streptococcus pneumoniae [2],17 µM
O=C(O)c1cnc2nc(N3CCCC3)c(F)c(O)c2c1O,MIC,Haemophilus influenzae,4 µg/mL
same,MIC,Streptococcus pneumoniae [1],4 µg/mL
same,IC50,Streptococcus pneumoniae [2],51 µM
O=C(O)c1cnc2nc(N3CCC3)c(F)c(O)c2c1O,MIC,Haemophilus influenzae,64 µg/mL
same,MIC,Streptococcus pneumoniae [1],64 µg/mL
same,IC50,Streptococcus pneumoniae [2],200 µM
O=C(O)c1cnc2nc(N3CCC3)c(F)cc2c1O,MIC,Haemophilus influenzae,1 µg/mL
same,MIC,Streptococcus pneumoniae [1],4 µg/mL
same,IC50,Streptococcus pneumoniae [2],5 µM
COc1c(F)c(N2CCC(N)C2)nc2ncc(C(=O)O)c(O)c12 (centres undefined),MIC,Haemophilus influenzae,64 µg/mL
same,MIC,Streptococcus pneumoniae [1],64 µg/mL
same,IC50,Streptococcus pneumoniae [2],4 µM
NC1CCN(c2nc3ncc(C(=O)O)c(O)c3cc2F)C1 (centres undefined),MIC,Haemophilus influenzae,4 µg/mL
same,MIC,Streptococcus pneumoniae [1],32 µg/mL
same,IC50,Streptococcus pneumoniae [2],7 µM
O=C(O)c1cnc2nc(N3CCCC3)c(F)cc2c1O,MIC,Haemophilus influenzae,1 µg/mL
same,MIC,Streptococcus pneumoniae [1],4 µg/mL
same,IC50,Streptococcus pneumoniae [2],10 µM
COc1c(F)c(N2CCC2)nc2ncc(C(=O)O)c(O)c12,MIC,Haemophilus influenzae,32 µg/mL
same,MIC,Streptococcus pneumoniae [1],8 µg/mL
same,IC50,Streptococcus pneumoniae [2],14 µM
C[C@H]1COc2c(N3CCN(C)CC3)c(F)cc3c(=O)c(C(=O)O)cn1c23.C[C@H]1COc2c(N3CCN(C)CC3)c(F)cc3c(=O)c(C(=O)O)cn1c23.O [LEVOFLOXACIN],MIC,Haemophilus influenzae,0.015 µg/mL
same,IC50,Streptococcus pneumoniae [2],> 100 µM
